Measurements as given in ChEMBL document CHEMBL1139727, “A novel series of imidazo[1,2-a]pyridine derivatives as HIF-1alpha prolyl hydroxylase inhibitors” (Bioorg Med Chem Lett, 2006).

Biological target: Egl nine homolog 1 (Homo sapiens, UniProt Q9GZT9)
Assay: Inhibition of human EGLN1

Sequence of Egl nine homolog 1 (Q9GZT9 whole entry): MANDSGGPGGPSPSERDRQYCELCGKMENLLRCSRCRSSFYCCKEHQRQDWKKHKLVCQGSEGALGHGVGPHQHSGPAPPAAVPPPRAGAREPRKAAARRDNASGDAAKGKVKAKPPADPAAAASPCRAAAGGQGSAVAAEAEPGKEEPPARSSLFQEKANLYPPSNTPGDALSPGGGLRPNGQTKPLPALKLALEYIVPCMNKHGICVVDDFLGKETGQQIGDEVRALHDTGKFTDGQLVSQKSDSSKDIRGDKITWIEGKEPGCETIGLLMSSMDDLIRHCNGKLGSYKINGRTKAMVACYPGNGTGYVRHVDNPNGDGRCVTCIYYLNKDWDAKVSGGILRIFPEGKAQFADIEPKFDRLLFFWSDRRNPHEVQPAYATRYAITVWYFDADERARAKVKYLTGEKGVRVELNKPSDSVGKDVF

IC50: > 100 µM
Structure (SMILES): Cc1cccc(-c2ccc3nc(C(=O)NCC(=O)O)cn3c2)c1
